Holding throughout (assay type): cell-based
The test system of one data set is HCT116 IDH1/2 WT cells. The data set can be described thus: H3K9me2 Western blot after exogenous 2-HG treatment. The conditions noted are these: 10 mM 2-HG or 1 mM Cell-Permeable 2-HG for about 30 days. How it is done: In order to evaluate the effect of IDH1 mutations, IDH2 mutations and 2-HG on H3K9me2, HCT116 colorectal cells that were engineered to endogenously express various clinically relevant mutations in IDH1 or IDH2 (Horizon Discovery, Cambridge, UK) were assayed for changes in H3K9me2 levels. […] HCT116 IDH1/2 WT cells were also exogenously treated with 10 mM 2-HG or 1 mM Cell-Permeable 2-HG for about 30 days. All cells were grown in McCoy's 5A Media (Life Technologies, Carlsbad, Calif.) containing 10% Fetal Bovine Serum (Hyclone, Logan, Utah). At least 10^6 cells per line were harvested and subject to a Histone Acid Extraction® Protocol (Abcam, Cambridge, Mass.). Cells in culture were rinsed with PBS and detached using 0.25% trypsin. Trypsin was deactivated using fresh media and the sample was spun down at 1000 rpm for 5 minutes. Media was aspirated and samples were kept at −80° C. until ready for processing.
Cells were washed twice in ice-cold PBS supplemented with 5 mM sodium butyrate (Sigma-Aldrich, St. Louis Mo.). Cells were then resuspended in Triton Extraction Buffer (TEB: PBS containing 0.5% TritonX 100(v/v), 2 mM phenylmethylsulfonyl fluoride (PMSF), 0.02% (w/v) sodium azide) also supplemented with 5 mM sodium butyrate at density of 10^7 cells per mL. […] Histone extracts were subsequently quantified using a detergent compatible (“DC”) protein assay kit (BioRad, Hercules, Calif.). […]
For orientation: A western blot detects proteins with antibodies after separation by electrophoresis.

The test system of data set [1] is SW1353 chondrosarcoma cells (IDH2-R172S/WT). Put plainly: H3K9me2 Western blot in IDH2 mutant SW1353 cells upon IDH2 knockdown. Particulars: SW1353 stable lines, doxycycline 100 ng/mL, 6 days. The protocol: SW1353 chondrosarcoma cells (ATCC HTB-94) contain an activating mutation in IDH2 (IDH2-R172S/WT). These cells were cultured in RPM-1640 (Life Technologies, Carlsbad, Calif.) supplemented with 1% sodium pyruvate and 10% Tet-Free fetal bovine serum. IDH2 shRNAs were cloned into pLKO-Tet-ON-puromycin vectors. All shRNAs were validated to give sufficient knockdown of target as judged by RNA, protein, and reduced 2-HG production.
Lentiviral particles were produced by co-transfecting the shRNA plasmid of interest with packaging plasmids Δ8.9 and VSVG into 293T cells using Transit293® transfection reagent (Mirus, Madison, Wis.). Lentiviral supernatants were then used to spin-infect HT-1080 cells in the presence of 8 μg/mL polybrene. Cells recovered overnight in fresh medium and were then selected and continually cultured in appropriate antibiotics.
SW1353 stable lines were cultured with and without doxycycline (100 ng/mL final concentration) for 6 days in the absence of selection. At day 6, cells were lifted using trypsin and histones were extracted as previously described.
Histone extracts were prepared with NuPAGE® 4×LDS Sample Buffer (Life Technologies, Carlsbad, Calif.) and heated to 70° C. for 10 minutes. Samples were run on NuPage® Novex 4-12% Bis-Tris gel (Life Technologies, Carlsbad, Calif.) using MES buffer (Life Technologies, Carlsbad, Calif.). […]

A further data set relates to SW1353 cells. The data set can be described thus: Histone profiling by LC-MS/MS, IDH2 shRNA vs. non-targeting control shRNA. The conditions noted are these: doxycycline 100 ng/mL, 6 days, vs. shNTC. The protocol:
Also profiled were three endogenously mutant cell lines upon modulation of the target by chemical or genetic means in order to evaluate other lysine methylation marks. We used histone acid extracts (as described in Example 1) from HT1080 and SNU1079 cells treated with 3 μM compound 162 or DMSO control for 6 days, as well as SW1353 cells that have been induced (100 ng/mL doxycycline) with IDH2 specific shRNA (shIDH2-891 or shNTC) for 6 days. Histones were further enriched with ActiveMotif® Histone purification mini kit (ActiveMotif Inc., Carlsbad, Calif.)
The purified histones were desalted by off line reversed phase chromatography on an 1200 Agilent tower (Agilent, Santa Clara, Calif.) using a Jupiter® 5 μm C4 300 Å Column 150×2 mm (Phenomenex, Torrance, Calif.). The resulting peak area was used to estimate concentration against the peak area of histones of known concentration. The desalted histones were lyophilyzed prior to lysine derivatization. […]
The data obtained via mass spectrometry was interpreted using Mascot Distiller® (Matrix Science, Boston, Mass.) for identification followed by manual verification. The peak area obtained from the data acquired was processed using Skyline Software® (v1.4.0.422 University of Washington, Seattle, Wash.) for quantitation of the peptides bearing post translational modifications.

On to `O=C(O)CCC(O)C(=O)O` (centres unmarked) [2-HG, 2-hydroxyglutarate], for which the “H3K9me2 levels (Western blot, FIG. 1B)” value with HCT116 IDH1/2 WT cells was “sufficient to increase H3K9me2 levels”. On to “shIDH2-309: IDH2 specific shRNA, 5′ GTGGACATCCAGCTAAAGTAT 3′ (SEQ ID NO: 9)”, for which, in data set [1], the “H3K9me2 methylation level (Western blot, FIG. 3)” value was “H3K9me2 methylation level is reduced”. For the molecule “shIDH2-891: IDH2 specific shRNA, 5′ ATCTTTGACAAGCACTATAAG 3′ (SEQ ID NO: 10)”, the “H3K9me2 methylation level (Western blot, FIG. 3)” value in data set [1] is given as “H3K9me2 methylation level is reduced”. In the data set with SW1353 cells, the “H3K9me0 level, change from control (mass spectrometry, FIG. 7)” value is “H3K9me0 level increases” and the “H3K9me2 level, change from control (mass spectrometry, FIG. 7)” value was “H3K9me2 level reduction”.

The values are drawn from patent US20160312311A1, “MARKERS FOR ISOCITRATE DEHYDROGENASE INHIBITORS” (NOVARTIS AG, priority 2013, published 2016).
